US11154619B2, “Liposomal compositions with light illumination-induced drug release” (Creighton University, priority 2017, dated 2021)
Where a name gives a salt, the structure may show the parent alone.

Tested on: WI26-VA4 cells
Experiment: Doxorubicin cytotoxicity by MTT cell viability assay, liposomes with or without pre-illumination
Type: cell-based
Settings: total dose of 1 μM; co-incubated with cells for 4 hours; evaluated 48 hours after treatment; no illumination
Method: Studies were performed on the fluorescent marker- or drug-loaded liposomes described above diluted to a concentration of 0.2 mM by total lipids with or without the photosensitizer-peptide conjugate described above at 1:80 to 1:5 molar ratio to total lipids. Optionally, samples were also supplied with antioxidants/reducing agents or other additional substances at different concentrations. Samples were either illuminated as described below or kept for the same time period under different control conditions.
Illumination of prepared liposomes with or without photosensitizer-peptide conjugate was mostly preformed using a setup that included a halogen utility lamp, a 2-inch thick flowing water filter to cut infrared irradiation above 950 nm and a red optical cast plastic filter (EdmundOptics) to cut off light irradiation below 620 nm (FIG. 1). […]
Release of the drug substance (doxorubicin hydrochloride) from the liposomes was done by enhancement of its biological action (cytotoxicity) on cultured WI26-VA4 cells after pre-illuminating liposomes with or without photosensitizer-peptide conjugate in comparison to liposomes at the same dose without pre-illumination, co-incubated with cells for 4 hours. The extent of cell death was evaluated 48 hours after treatment using a MTT cell viability assay.

For `COc1cccc2c1C(=O)c1c(O)c3c(c(O)c1C2=O)C[C@@](O)(C(=O)CO)C[C@@H]3O[C@H]1C[C@H](N)[C@H](O)[C@H](C)O1` [doxorubicin hydrochloride], the cell death was “about 60%”.
